Measured values taken from patent US9023843B2, “Antimicrobial compounds and methods of making and using the same” (Melinta Therapeutics, Inc., priority 2009, dated 2015).

tested on: Eschericia coli strain ATCC25922; assay: standard microdilution assay to determine minimum inhibitory concentrations (MICs); type: cell-based; conditions: Escherichia coli, read-out: E. coli ATCC25922 MIC
Description: Minimum inhibitory concentrations (MICs) are determined by the microdilution method, typically in a final volume of 100 microliters, according to protocols outlined by The Clinical and Laboratory Standards Institute [CLSI; formerly the National Committee for Clinical Laboratory Standards (NCCLS)]. See CLSI: Methods for dilution antimicrobial susceptibility tests for bacteria that grow aerobically; approved standard-fifth edition. Wayne, Pa.: NCCLS; 2000. The assays can be also be performed in microtiter trays according to conventional methodologies as published by the CLSI. See CLSI. Methods for Dilution Antimicrobial Susceptibility Tests for Bacteria That Grow Aerobically; Approved Standard-Seventh Edition. CLSI Document M7-A7 [ISBN 1-56238-587-9] CLSI, 940 West Valley Road, Suite 1400, Wayne Pa. 19087-1898 USA, 2006).
The compounds of the present invention were tested for antimicrobial activity. The compounds were run against Eschericia coli strain ATCC25922 using a standard microdilution assay to determine minimum inhibitory concentrations (MICs). […] A “N/A” means that data is unavailable. It will be recognized by one skilled in the art that the compounds can be assessed against other bacterial organisms and that the presentation of data for activity against Eschericia coli is illustrative and in no way is intended to limit the scope of the present invention. The compounds of the present invention can be assayed against a range of other microorganisms depending upon the performance activity desired to be gathered. Furthermore, the “+”, “−”, and “N/A” representation and the selection of a cutoff value of 16 micrograms/ml is also illustrative and in no way is intended to limit the scope of the present invention.

`NCCCNCc1ccc(-c2cn3c(=O)cc(-c4ccccc4F)[nH]c3nc2=O)cc1` [Compound 360] and `NCCCNCc1ccc(-c2cn3c(=O)cc(-c4ccccc4OC(F)(F)F)[nH]c3nc2=O)cc1` [Compound 371] cannot be ordered by MIC: > 16 µg/mL for the first, > 16 µg/mL for the second.

`NCCCNCc1ccc(-c2cn3c(=O)cc(-c4cc(F)c(F)cc4F)[nH]c3nc2=O)cc1` [Compound 362] and `NCCCNCc1ccc(-c2cn3c(=O)cc(Cc4cc(F)c(F)cc4F)[nH]c3nc2=O)cc1` [Compound 469] cannot be ordered by MIC: > 16 µg/mL for the first, > 16 µg/mL for the second.

`NCCCNCc1ccc(-c2cn3c(=O)cc(Cc4ccc(C(F)(F)F)cc4)[nH]c3nc2=O)cc1` [Compound 367] and `NCCCNCc1ccc(-c2cn3c(=O)cc(-c4ccc(C(F)(F)F)cc4)[nH]c3nc2=O)cc1` [Compound 391] cannot be ordered by MIC: > 16 µg/mL for the first, > 16 µg/mL for the second.

`O=c1nc2[nH]c(-c3ccccc3F)cc(=O)n2cc1I` [Compound 375] and `NCCCNCc1ccc(-c2cn3c(=O)cc(-c4ccc(Cl)c(Cl)c4)[nH]c3nc2=O)cc1` [Compound 390] cannot be ordered by MIC: > 16 µg/mL for the first, > 16 µg/mL for the second.

`NCCCNCc1ccc(-c2cn3c(=O)cc(-c4ccc(OC(F)(F)F)cc4)[nH]c3nc2=O)cc1` [Compound 377] and `COc1ccc(-c2cc(=O)n3cc(-c4ccc(CNCCCN)cc4)c(=O)nc3[nH]2)cc1` [Compound 378] cannot be ordered by MIC: > 16 µg/mL for the first, > 16 µg/mL for the second.

`COc1cc(-c2cc(=O)n3cc(-c4ccc(CNCCCN)cc4)c(=O)nc3[nH]2)cc(OC)c1OC` [Compound 379] and `NCCCNCc1ccc(-c2cn3c(=O)cc(Cc4ccc(F)c(F)c4)[nH]c3nc2=O)cc1` [Compound 411] cannot be ordered by MIC: > 16 µg/mL for the first, > 16 µg/mL for the second.

`NCCCNCc1ccc(-c2cn3c(=O)cc(Cc4ccc5c(c4)OCO5)[nH]c3nc2=O)cc1` [Compound 380] and `NCCCNCc1ccc(-c2cn3c(=O)cc(Cc4ccc(Cl)c(Cl)c4)[nH]c3nc2=O)cc1` [Compound 430] cannot be ordered by MIC: > 16 µg/mL for the first, > 16 µg/mL for the second.

`NCCCN1CCN(C(=O)Cn2cc3c(nc2=O)Nc2ccccc2O3)CC1` [Compound 392] and `NCCCN1CCC(n2cc3c(nc2=O)Nc2ccccc2O3)CC1` [Compound 528] cannot be ordered by MIC: > 16 µg/mL for the first, > 16 µg/mL for the second.

`NCCCNCc1ccc(-n2cc3c(nc2=O)Nc2ccc(-c4ccc(F)cc4)cc2O3)cc1` [Compound 393] and `NCCCNCc1ccc(-n2cc3c(nc2=O)Nc2cc(-c4ccc(F)cc4)ccc2O3)cc1` [Compound 402] cannot be ordered by MIC: > 16 µg/mL for the first, > 16 µg/mL for the second.

`NCCCNCc1ccc(-n2cc3c(nc2=O)Nc2cc(Br)ccc2O3)cc1` [Compound 396] and `NCCCNCc1ccc(-n2cc3c(nc2=O)Nc2ccc(Br)cc2O3)cc1` [Compound 442] cannot be ordered by MIC: > 16 µg/mL for the first, > 16 µg/mL for the second.

`NCCCNCc1ccc(-n2cc3c(nc2=O)Nc2ccc(-c4cnc(N5CCOCC5)nc4)cc2O3)cc1` [Compound 400] and `NCCCNCc1ccc(-n2cc3c(nc2=O)Nc2cc(-c4cnc(N5CCOCC5)nc4)ccc2O3)cc1` [Compound 440] cannot be ordered by MIC: > 16 µg/mL for the first, > 16 µg/mL for the second.

`NCCCNCc1ccc(-c2cn3c(=O)cc(Cc4ccccc4OC(F)(F)F)[nH]c3nc2=O)cc1` [Compound 426] and `NCCCNCc1ccc(-c2cn3c(=O)cc(Cc4cccc([N+](=O)[O-])c4)[nH]c3nc2=O)cc1` [Compound 447] cannot be ordered by MIC: > 16 µg/mL for the first, > 16 µg/mL for the second.

`NCCCNCc1ccc(-n2cc3c(nc2=O)Nc2ccc(C#Cc4ccc(F)cc4)cc2O3)cc1` [Compound 460] and `NCCCNCc1ccc(-n2cc3c(nc2=O)Nc2ccc(CCc4ccc(F)cc4)cc2O3)cc1` [Compound 558] cannot be ordered by MIC: > 16 µg/mL for the first, > 16 µg/mL for the second.

First: N=C(N)NCCCN1CCC(n2cc3c(nc2=O)Nc2ccccc2O3)CC1 [Compound 529]
Second: N=C(N)NCCCN1CCCC(n2cc3c(nc2=O)Nc2ccccc2O3)CC1 (centres unmarked) [Compound 603]
The MIC of the first is higher: > 16 µg/mL for the first, < 16 µg/mL for the second.

`NCCCCCN1CC[C@@H](n2cc3c(nc2=O)Nc2ccccc2O3)C1` [Compound 543] and `NCCCCCN1CCC(n2cc3c(nc2=O)Nc2ccccc2O3)CC1` [Compound 557] cannot be ordered by MIC: > 16 µg/mL for the first, > 16 µg/mL for the second.

`NCCCCCN1CCCC(n2cc3c(nc2=O)Nc2ccccc2O3)CC1` (centres unmarked) [Compound 544] and `NCCCCN1CCCC(n2cc3c(nc2=O)Nc2ccccc2O3)CC1` (centres unmarked) [Compound 604] cannot be ordered by MIC: > 16 µg/mL for the first, > 16 µg/mL for the second.

`NCCCN1CC=C(c2cnc3n(CCCN)c(-c4ccc(F)cc4)cn3c2=O)CC1` [Compound 568] and `NCCCn1c(-c2ccc(F)cc2)cn2c(=O)c(C3=CCNCC3)cnc12` [Compound 570] cannot be ordered by MIC: > 16 µg/mL for the first, > 16 µg/mL for the second.

`NCCCN1CC=C(c2cnc3[nH]c(-c4ccc(F)cc4)cn3c2=O)CC1` [Compound 569] and `COc1ccc(-c2ccc3c(c2)Nc2nc(=O)n(C4CCN(CCCN)CC4)cc2O3)cc1F` [Compound 615] cannot be ordered by MIC: > 16 µg/mL for the first, > 16 µg/mL for the second.

`N=C(N)NCCCCCN1CC[C@@H](n2cc3c(nc2=O)Nc2ccccc2O3)C1` [Compound 575] and `N=C(N)NCCCCCN1CCCC(n2cc3c(nc2=O)Nc2ccccc2O3)CC1` (centres unmarked) [Compound 576] cannot be ordered by MIC: > 16 µg/mL for the first, > 16 µg/mL for the second.

`O=c1nc2c(cn1C1CCNCC1)Oc1ccccc1N2` [Compound 578] and `O=c1nc2c(cn1C1CCCNCC1)Oc1ccccc1N2` (centres unmarked) [Compound 595] cannot be ordered by MIC: > 16 µg/mL for the first, > 16 µg/mL for the second.

Compared with `O=c1nc2c(cn1C1CCNCC1)Oc1ccc(CCc3cccc(F)c3)cc1N2` [Compound 579], `NCCCN1CCC(n2cc3c(nc2=O)Nc2cc(CCc4cccc(F)c4)ccc2O3)CC1` [Compound 592, 3-[1-(3-Amino-propyl)-piperidin-4-yl]-7-[2-(3-fluoro-phenyl)-ethyl]-3H,9H-10-oxa-1,3,9-triaza-anthracen-2-one] is lower in MIC: > 16 µg/mL for the first, < 16 µg/mL for the second.

`NCCCN1CCCC(n2cc3c(nc2=O)Nc2ccccc2O3)CC1` (centres unmarked) [Compound 598] and `COC(=O)c1ccc2c(c1)Nc1nc(=O)n(C3CCN(CCCN)CC3)cc1O2` [Compound 606] cannot be ordered by MIC: > 16 µg/mL for the first, > 16 µg/mL for the second.

Compared with `CN(C)c1ncc(-c2ccc3c(c2)Nc2nc(=O)n(C4CCN(CCCN)CC4)cc2O3)cn1` [Compound 614], `CN(C)c1ncc(-c2ccc3c(c2)Nc2nc(=O)n(C4CCN(CCCNC(=N)N)CC4)cc2O3)cn1` [Compound 627] is lower in MIC: > 16 µg/mL for the first, < 16 µg/mL for the second.

`N=C(N)NCCCN1CCC(n2cc3c(nc2=O)Nc2cc(C(=O)NCc4ccc(Br)cc4)ccc2O3)CC1` [Compound 638] and `N=C(N)NCCCN1CCC(n2cc3c(nc2=O)Nc2cc(C(=O)NCCc4ccc(F)cc4)ccc2O3)CC1` [Compound 659] cannot be ordered by MIC: > 16 µg/mL for the first, > 16 µg/mL for the second.

`N=C(N)NCCCN1CCC(n2cc3c(nc2=O)Nc2cc(C(=O)NCC(F)(F)F)ccc2O3)CC1` [Compound 639] and `N=C(N)NCCCN1CCC(n2cc3c(nc2=O)Nc2cc(C(=O)NCC(F)(F)C(F)(F)F)ccc2O3)CC1` [Compound 643] cannot be ordered by MIC: > 16 µg/mL for the first, > 16 µg/mL for the second.

`N=C(N)NCCCN1CCC(n2cc3c(nc2=O)Nc2cc(C(=O)NCCc4nc5ccccc5[nH]4)ccc2O3)CC1` [Compound 641] and `N=C(N)NCCCN1CCC(n2cc3c(nc2=O)Nc2cc(C(=O)Nc4ccccc4OC(F)(F)F)ccc2O3)CC1` [Compound 675] cannot be ordered by MIC: > 16 µg/mL for the first, > 16 µg/mL for the second.

`N=C(N)NCCCN1CCC(n2cc3c(nc2=O)Nc2cc(C(=O)NCCCN4CCOCC4)ccc2O3)CC1` [Compound 642] and `N=C(N)NCCCN1CCCC(n2cc3c(nc2=O)Nc2cc(C(=O)NCCCN4CCOCC4)ccc2O3)CC1` (centres unmarked) [Compound 658] cannot be ordered by MIC: > 16 µg/mL for the first, > 16 µg/mL for the second.

`N=C(N)NCCCN1CCC(n2cc3c(nc2=O)Nc2cc(-c4cccc(C(=O)N5CCOCC5)c4)ccc2O3)CC1` [Compound 651] and `N=C(N)NCCCN1CCCC(n2cc3c(nc2=O)Nc2cc(-c4ccc(N5CCOCC5)cc4)ccc2O3)CC1` (centres unmarked) [Compound 664] cannot be ordered by MIC: > 16 µg/mL for the first, > 16 µg/mL for the second.

`N=C(N)NCCCN1CCC(n2cc3c(nc2=O)Nc2cc(C(=O)Nc4ccc(F)cc4F)ccc2O3)CC1` [Compound 656] and `N=C(N)NCCCN1CCCC(n2cc3c(nc2=O)Nc2cc(C(=O)Nc4ccc(F)cc4F)ccc2O3)CC1` (centres unmarked) [Compound 657] cannot be ordered by MIC: > 16 µg/mL for the first, > 16 µg/mL for the second.

`NCCCN1CCC(n2cc3c(nc2=O)Nc2cc(C(=O)NCCc4ccc(F)cc4)ccc2O3)CC1` [Compound 660] and `N=C(N)NCCCN1CCC(n2cc3c(nc2=O)Nc2cc(C(=O)Nc4cc(F)c(F)cc4F)ccc2O3)CC1` [Compound 685] cannot be ordered by MIC: > 16 µg/mL for the first, > 16 µg/mL for the second.

`N=C(N)NCCCN1CCCC(n2cc3c(nc2=O)Nc2cc(-c4ccc(C(F)(F)F)nc4)ccc2O3)CC1` (centres unmarked) [Compound 667] and `N=C(N)NCCCNC1CCC(n2cc3c(nc2=O)Nc2cc(-c4ccc(C(F)(F)F)nc4)ccc2O3)CC1` (centres unmarked) [Compound 671] cannot be ordered by MIC: > 16 µg/mL for the first, > 16 µg/mL for the second.

`N=C(N)NCCCN1CCC(n2cc3c(nc2=O)Nc2cc(C(=O)NCCN4CCOCC4)ccc2O3)CC1` [Compound 669] and `N=C(N)NCCCN1CCC(n2cc3c(nc2=O)Nc2cc(C(=O)NCCCN4CCCC4=O)ccc2O3)CC1` [Compound 674] cannot be ordered by MIC: > 16 µg/mL for the first, > 16 µg/mL for the second.

`NCCCNC1CCC(n2cc3c(nc2=O)Nc2cc(-c4ccc(C(F)(F)F)nc4)ccc2O3)CC1` (centres unmarked) [Compound 672] and `N#Cc1cccc(-c2ccc3c(c2)Nc2nc(=O)n(C4CCCN(CCCNC(=N)N)CC4)cc2O3)c1` (centres unmarked) [Compound 676] cannot be ordered by MIC: > 16 µg/mL for the first, > 16 µg/mL for the second.

`Cn1cnc(S(=O)(=O)N2CCC(c3ccc4c(c3)Nc3nc(=O)n(C5CCN(CCCNC(=N)N)CC5)cc3O4)CC2)c1` [Compound 681] and `N=C(N)NCCCN1CCC(n2cc3c(nc2=O)Nc2cc(C(=O)Nc4ncn[nH]4)ccc2O3)CC1` [Compound 686] cannot be ordered by MIC: > 16 µg/mL for the first, > 16 µg/mL for the second.
